Results as given in paper PMC12518996 (Frontiers in Pharmacology, 2025).

Experiments:
Assay type in all cases: in vitro ADME
Conditions in all cases: trazodone 4 μM; NADPH; 37 °C, 40 min
CYP2C8 = biological target: T1, CYP2C8 (Homo sapiens, UniProt P10632); test: Metabolite formation by recombinant human CYP2C8
T1 sequence (P10632 1-490): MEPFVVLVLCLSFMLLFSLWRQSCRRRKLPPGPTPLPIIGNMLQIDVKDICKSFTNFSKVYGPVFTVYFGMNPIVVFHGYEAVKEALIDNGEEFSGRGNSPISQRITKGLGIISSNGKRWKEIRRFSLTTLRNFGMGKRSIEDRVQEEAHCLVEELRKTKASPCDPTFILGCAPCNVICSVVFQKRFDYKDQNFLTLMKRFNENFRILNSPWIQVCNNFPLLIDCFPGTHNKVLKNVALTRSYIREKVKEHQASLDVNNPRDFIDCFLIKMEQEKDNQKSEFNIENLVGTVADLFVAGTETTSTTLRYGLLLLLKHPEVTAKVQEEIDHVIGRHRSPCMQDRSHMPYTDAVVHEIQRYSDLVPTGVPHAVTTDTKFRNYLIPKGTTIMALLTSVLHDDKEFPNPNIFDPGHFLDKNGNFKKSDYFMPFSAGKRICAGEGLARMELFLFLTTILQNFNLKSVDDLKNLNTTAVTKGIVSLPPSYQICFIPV
Procedure: (§1) To confirm the role of individual CYP isoforms in metabolizing trazodone, recombinant human and rat CYP enzymes were employed in separate incubations. […] Each reaction was terminated with acetonitrile, centrifuged, and the supernatant was analyzed by identical UHPLC-Orbitrap setup outlined in §2.2, allowing direct comparison of metabolite spectra across all in-vitro systems. […] This procedure helped confirm the contributions of individual isoforms to specific biotransformation reactions.

CYP2C9 = CYP2C9 (Homo sapiens, UniProt P11712); test: Metabolite formation by recombinant human CYP2C9
Procedure: (§2) Each reaction was terminated with acetonitrile, centrifuged, and the supernatant was analyzed by identical UHPLC-Orbitrap setup outlined in §2.2, allowing direct comparison of metabolite spectra across all in-vitro systems.

CYP2D6 = CYP2D6 (Homo sapiens, UniProt P10635); test: Metabolite formation by recombinant human CYP2D6
Procedure: as §1

CYP3A5 = CYP3A5 (Homo sapiens, UniProt P20815); test: Metabolite formation by recombinant human CYP3A5
Procedure: as §2

CYP2C11 = biological target: T2, CYP2C11 (Rattus norvegicus, UniProt P08683); test: Metabolite formation by recombinant rat CYP2C11
T2 sequence (P08683 1-500): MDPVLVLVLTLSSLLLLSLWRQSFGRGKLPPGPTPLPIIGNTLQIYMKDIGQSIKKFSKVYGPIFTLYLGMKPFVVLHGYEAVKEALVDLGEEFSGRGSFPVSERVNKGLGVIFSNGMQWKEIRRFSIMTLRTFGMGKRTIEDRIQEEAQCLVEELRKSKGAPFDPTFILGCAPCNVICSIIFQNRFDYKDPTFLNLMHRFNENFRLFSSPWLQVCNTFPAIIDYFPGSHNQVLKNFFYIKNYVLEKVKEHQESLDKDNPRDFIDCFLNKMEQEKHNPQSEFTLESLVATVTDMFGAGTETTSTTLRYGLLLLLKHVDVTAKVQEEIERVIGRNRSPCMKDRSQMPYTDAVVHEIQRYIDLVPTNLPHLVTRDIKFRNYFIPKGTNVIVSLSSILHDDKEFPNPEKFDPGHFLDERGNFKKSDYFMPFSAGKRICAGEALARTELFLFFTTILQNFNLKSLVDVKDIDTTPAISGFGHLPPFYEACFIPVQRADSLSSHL
Procedure: as §1

CYP3A2 = biological target: T3, CYP3A2 (Rattus norvegicus, UniProt P05183); test: Metabolite formation by recombinant rat CYP3A2
T3 sequence (P05183 1-504): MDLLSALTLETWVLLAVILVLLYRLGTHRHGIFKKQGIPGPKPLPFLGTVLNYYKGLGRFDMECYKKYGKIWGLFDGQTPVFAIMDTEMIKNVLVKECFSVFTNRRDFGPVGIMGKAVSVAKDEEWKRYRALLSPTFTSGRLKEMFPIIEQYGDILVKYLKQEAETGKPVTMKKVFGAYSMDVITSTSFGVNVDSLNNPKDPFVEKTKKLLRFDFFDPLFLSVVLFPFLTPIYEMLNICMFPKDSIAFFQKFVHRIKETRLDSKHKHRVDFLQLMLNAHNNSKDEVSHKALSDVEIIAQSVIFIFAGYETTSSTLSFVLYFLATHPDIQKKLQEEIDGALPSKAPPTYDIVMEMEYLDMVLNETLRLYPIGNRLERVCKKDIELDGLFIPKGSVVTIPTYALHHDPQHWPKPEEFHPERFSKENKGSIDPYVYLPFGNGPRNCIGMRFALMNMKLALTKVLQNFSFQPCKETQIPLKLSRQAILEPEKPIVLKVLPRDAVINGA
Procedure: as §2

CYP3A9 = biological target: T4, CYP3A9 (Rattus norvegicus, UniProt P51538); test: Metabolite formation by recombinant rat CYP3A9
T4 sequence (P51538 1-503): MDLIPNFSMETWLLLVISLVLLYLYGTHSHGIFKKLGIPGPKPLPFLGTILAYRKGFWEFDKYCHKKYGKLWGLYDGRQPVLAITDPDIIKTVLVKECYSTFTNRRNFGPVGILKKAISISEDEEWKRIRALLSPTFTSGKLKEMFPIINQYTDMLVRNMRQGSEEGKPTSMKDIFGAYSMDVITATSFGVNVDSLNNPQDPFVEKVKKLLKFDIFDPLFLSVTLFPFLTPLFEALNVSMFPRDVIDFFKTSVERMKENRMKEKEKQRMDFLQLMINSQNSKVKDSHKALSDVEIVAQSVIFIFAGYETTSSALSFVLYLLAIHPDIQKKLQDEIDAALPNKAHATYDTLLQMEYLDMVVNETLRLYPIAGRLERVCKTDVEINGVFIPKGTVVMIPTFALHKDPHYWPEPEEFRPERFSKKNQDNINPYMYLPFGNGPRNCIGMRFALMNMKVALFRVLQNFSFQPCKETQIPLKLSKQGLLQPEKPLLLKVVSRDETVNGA
Procedure: as §2

Sequence of CYP2C9 (P11712 whole entry): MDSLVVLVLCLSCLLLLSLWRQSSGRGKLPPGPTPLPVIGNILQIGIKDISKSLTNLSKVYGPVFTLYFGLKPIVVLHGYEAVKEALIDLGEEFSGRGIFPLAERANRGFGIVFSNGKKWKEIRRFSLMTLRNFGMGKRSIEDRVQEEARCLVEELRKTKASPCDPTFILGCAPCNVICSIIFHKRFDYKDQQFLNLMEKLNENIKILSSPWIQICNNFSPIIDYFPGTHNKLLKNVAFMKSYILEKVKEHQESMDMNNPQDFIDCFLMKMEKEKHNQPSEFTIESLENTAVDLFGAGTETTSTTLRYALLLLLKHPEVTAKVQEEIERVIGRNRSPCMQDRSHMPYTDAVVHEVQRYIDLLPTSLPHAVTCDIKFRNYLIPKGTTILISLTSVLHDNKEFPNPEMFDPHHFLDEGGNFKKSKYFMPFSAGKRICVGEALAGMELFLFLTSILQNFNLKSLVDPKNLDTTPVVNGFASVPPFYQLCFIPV
Sequence of CYP2D6 (P10635 whole entry): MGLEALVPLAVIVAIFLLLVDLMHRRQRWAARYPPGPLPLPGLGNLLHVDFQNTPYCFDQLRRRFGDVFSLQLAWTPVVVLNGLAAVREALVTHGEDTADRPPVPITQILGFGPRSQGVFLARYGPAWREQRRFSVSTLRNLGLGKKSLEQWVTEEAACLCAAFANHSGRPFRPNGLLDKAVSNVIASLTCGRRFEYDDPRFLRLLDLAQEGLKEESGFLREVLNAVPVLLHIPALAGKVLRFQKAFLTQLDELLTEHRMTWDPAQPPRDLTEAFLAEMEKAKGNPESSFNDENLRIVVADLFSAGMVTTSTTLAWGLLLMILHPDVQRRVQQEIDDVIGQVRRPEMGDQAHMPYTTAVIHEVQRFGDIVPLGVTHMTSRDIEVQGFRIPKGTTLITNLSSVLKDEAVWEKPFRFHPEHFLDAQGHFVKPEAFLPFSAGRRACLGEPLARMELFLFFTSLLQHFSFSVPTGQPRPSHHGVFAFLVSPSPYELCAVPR
Sequence of CYP3A5 (P20815 whole entry): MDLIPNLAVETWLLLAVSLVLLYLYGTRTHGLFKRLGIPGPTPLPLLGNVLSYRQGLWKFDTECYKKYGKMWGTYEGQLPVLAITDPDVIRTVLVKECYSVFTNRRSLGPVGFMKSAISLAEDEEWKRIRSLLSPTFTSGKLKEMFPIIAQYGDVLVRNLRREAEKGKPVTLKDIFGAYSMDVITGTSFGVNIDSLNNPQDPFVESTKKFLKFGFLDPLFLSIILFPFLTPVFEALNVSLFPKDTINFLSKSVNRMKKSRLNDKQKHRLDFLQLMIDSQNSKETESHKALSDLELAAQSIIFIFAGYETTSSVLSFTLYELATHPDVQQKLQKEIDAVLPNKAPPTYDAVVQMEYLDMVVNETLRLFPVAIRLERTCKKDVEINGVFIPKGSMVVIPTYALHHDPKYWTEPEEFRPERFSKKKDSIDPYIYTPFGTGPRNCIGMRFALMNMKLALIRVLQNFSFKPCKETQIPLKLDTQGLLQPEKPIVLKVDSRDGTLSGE

Compound	Formation of trazodone phase I metabolite by recombinant human CYP2C8 (as LC/MS peak areas) (CYP2C8)	Formation of trazodone phase I metabolite by recombinant human CYP2C9 (as LC/MS peak areas) (CYP2C9)	Formation of trazodone phase I metabolite by recombinant human CYP2D6 (as LC/MS peak areas) (CYP2D6)	Formation of trazodone phase I metabolite by recombinant human CYP3A5 (as LC/MS peak areas) (CYP3A5)	Formation of trazodone phase I metabolite by recombinant rat CYP2C11 (as LC/MS peak areas) (CYP2C11)	Formation of trazodone phase I metabolite by recombinant rat CYP3A2 (as LC/MS peak areas) (CYP3A2)	Formation of trazodone phase I metabolite by recombinant rat CYP3A9 (as LC/MS peak areas) (CYP3A9)
Clc1cccc(N2CCNCC2)c1 [mCPP, m-chlorophenylpiperazine]	327	40	0	16847	6920	45534	18577
O=c1n(CCCN2CCNCC2)nc2ccccn12 [Metabolite M15]	26	0	0	3343	1210	3368	719
O=c1n(CCCO)nc2ccccn12 [Metabolite M20]	0	0	0	108	743	5761	1080
